Conditions: Liquid, Light diffraction method

CCCCCCCCC(=O)OCC [ethyl nonanoate]
Conditions | speed of sound [m/s]
422.02 K, 3000 kPa | 862.5
422.07 K, 100 kPa | 827.6
431.53 K, 1000 kPa | 808.9
431.84 K, 5000 kPa | 850.9
431.86 K, 10000 kPa | 888.7
431.88 K, 7000 kPa | 861.7
432.05 K, 3000 kPa | 827.6
432.93 K, 100 kPa | 797.1
442.94 K, 1000 kPa | 779.7
443 K, 7000 kPa | 835.6
443.02 K, 10000 kPa | 860.3
443.11 K, 3000 kPa | 796.4
443.15 K, 5000 kPa | 814.1
443.7 K, 100 kPa | 767.3
452.5 K, 1000 kPa | 750.6
452.64 K, 7000 kPa | 805
452.65 K, 5000 kPa | 786.9
452.68 K, 10000 kPa | 835.1
452.83 K, 100 kPa | 739.6
452.88 K, 3000 kPa | 771.1
462.31 K, 3000 kPa | 743.5
462.34 K, 7000 kPa | 783.1
462.43 K, 10000 kPa | 804.8
462.49 K, 5000 kPa | 763
462.68 K, 1000 kPa | 720.1
464.19 K, 100 kPa | 703.5
471.8 K, 3000 kPa | 718.5
471.86 K, 5000 kPa | 737.7
471.86 K, 7000 kPa | 756.6
471.87 K, 1000 kPa | 693.4
471.88 K, 100 kPa | 683
471.95 K, 10000 kPa | 783.4
482.55 K, 1000 kPa | 665.4
482.56 K, 3000 kPa | 691.9
482.58 K, 7000 kPa | 727.2
482.62 K, 5000 kPa | 709.2
482.62 K, 10000 kPa | 759.9
482.75 K, 100 kPa | 652.6
492.48 K, 10000 kPa | 735.7
492.57 K, 3000 kPa | 660.7
492.66 K, 7000 kPa | 704.9
492.67 K, 5000 kPa | 681.7
493 K, 1000 kPa | 637.4
502.65 K, 3000 kPa | 635.1
502.91 K, 7000 kPa | 681.8
502.95 K, 1000 kPa | 607.9
503.08 K, 10000 kPa | 709.9
503.42 K, 5000 kPa | 655.5
512.78 K, 7000 kPa | 655
512.8 K, 10000 kPa | 689.4
512.83 K, 3000 kPa | 609.6
512.9 K, 5000 kPa | 633.5
513.2 K, 1000 kPa | 581.3
522.13 K, 1000 kPa | 555.5
522.19 K, 7000 kPa | 631.9
522.31 K, 3000 kPa | 583.9
522.36 K, 5000 kPa | 609.3
522.38 K, 10000 kPa | 662
533.35 K, 1000 kPa | 519.4
533.43 K, 7000 kPa | 605.6
533.52 K, 10000 kPa | 637
533.6 K, 3000 kPa | 552.1
533.69 K, 5000 kPa | 581.4
542.72 K, 3000 kPa | 528.8
542.76 K, 10000 kPa | 619.6
542.79 K, 7000 kPa | 583
542.91 K, 5000 kPa | 553.5
543.62 K, 1000 kPa | 491
552.52 K, 3000 kPa | 500.5
552.61 K, 7000 kPa | 558.1
552.71 K, 1000 kPa | 458.7
552.72 K, 5000 kPa | 527.6
552.76 K, 10000 kPa | 596.5
562.08 K, 1000 kPa | 428.6
562.32 K, 5000 kPa | 499.9
562.4 K, 7000 kPa | 532
562.45 K, 10000 kPa | 574.7
562.48 K, 3000 kPa | 468.4
571.78 K, 3000 kPa | 435.9
571.96 K, 1000 kPa | 387.2
572.13 K, 7000 kPa | 504.6
572.32 K, 10000 kPa | 549
572.37 K, 5000 kPa | 472
582.01 K, 5000 kPa | 439.9
582.26 K, 7000 kPa | 473.6
582.35 K, 10000 kPa | 525.5
582.39 K, 3000 kPa | 393.3
591.81 K, 3000 kPa | 351.2
592.38 K, 5000 kPa | 398.5
592.79 K, 7000 kPa | 438.3
593.15 K, 10000 kPa | 495.3
